Measured values: patent US9464042B2, “Biguanide derivative, preparation method thereof, and pharmaceutical composition containing same as an active ingredient” (IMMUNOMET THERAPEUTICS INC., priority 2010, dated 2016)
Structures can show the parent of a compound that is named as a salt.

Columns and labels:
[1] = test system: HCT116 cells; test: Inhibition of cancer cell proliferation (MTT, GIC50); format: cell-based; details: Homo sapiens, HCT-116, 48 h incubation
Protocol: HCT116 cells derived from human colorectal cancer were used, and a cancer cell proliferation inhibition effect of a biguanide derivative was confirmed by measuring a concentration value (cell growth inhibition concentration, GIC50) at which cell growth was inhibited 50% using a 3-(4,5-dimethylthiazol-2-yl)-2,5-diphenyltetrazolium bromide (MTT) reagent.
First, the HCT116 cells were put on a 96-well plate and incubated for 24 hours to each have cell count of approximately 5000 in a DMEM medium containing 10% fetal bovine serum. Subsequently, to obtain the GIC50 value of each compound, 100 μM (or 200 μM), 25 μM, 6.25 μM, 1.56 μM or 0.39 μM of the compound was treated to each culture medium and then incubated for 48 hours. To confirm living cells after treatment with the compound, MTT was added to each culture medium and further incubated for 3 hours. Generated formazane crystal was dissolved using dimethyl sulfoxide (DMSO), and absorbance of the solution was measured at 560 nm. After the 48-hour incubation, a ratio of […] synthesized in the examples was indicated as cell viability (%) according to each administered concentration. A cell viability curve was plotted using the cell viability (%) and the calculated concentration value (GIC50) of the compound, at which 50% of the growth was inhibited, to confirm an effect on the inhibition of cancer cell proliferation.

[2] = test system: AMPK; test: AMPK activation (AMPKα immunoassay kit, phospho-Thr172) in MCF7 cells; format: cell-based, human; set-up: AMPK Activation 50 uM (degree of phosphorylated AMPKα Thr172): unit not given here; details: 24 h; for AMPK Activation 50 uM (degree of phosphorylated AMPKα Thr172): 50 uM compound
Protocol: The MCF7 cells were put on a 6-well plate and incubated in a DMEM medium containing 10% fetal bovine serum in an incubator to which 5% CO2 was supplied to have a cell count of approximately 5×10^5. 50 μM of the derivatives synthesized in the examples were treated to the each culture medium, and the cells were incubated for 24 hours. Subsequently, the cells were lysed by a method presented in the operation manual of the AMPKα immunoassay kit, and 20 μg of cell lysates were yielded through protein assay.

[3] = 50 uM compound vs 0 (no compound)

| Compound | IC50 [1] | AMPK Activation Fold [2, 3] | AMPK Activation 50 uM (degree of phosphorylated AMPKα Thr172) [2] | melting point | AMPK Activation Fold ([2]; 1 mM metformin vs 0 (no compound)) | AMPK Activation (@ 1 mM) (degree of phosphorylated AMPKα Thr172) ([2]; 1 mM metformin) |
| --- | --- | --- | --- | --- | --- | --- |
| CCCC/N=C(/NC(=N)N)NC1CCCCCC1.Cl [Example 1, N4-butyl-N5-cycloheptyl biguanide hydrochloride] | > 200 µM | 4.0 | 21.1 |  |  |  |
| CCC/N=C(\NC)NC(=N)N.Cl [Example 2, N4-propyl-N5-methyl biguanide hydrochloride] | > 100 µM | 1.0 | 6.5 | 170 to 171 °C |  |  |
| CCCCCC/N=C(\NC)NC(=N)N.Cl [Example 3, N4-hexyl-N5-methyl biguanide hydrochloride] | > 100 µM | 5.2 | 35.5 |  |  |  |
| C=CC/N=C(\NC)NC(=N)N.Cl [Example 4, N4-allyl-N5-methyl biguanide hydrochloride] | > 100 µM | 0.8 | 5.3 | 156 to 157 °C |  |  |
| CN/C(=N\Cc1ccccc1)NC(=N)N.Cl [Example 5, N4-benzyl-N5-methyl biguanide hydrochloride] | > 100 µM | 1.6 | 10.8 | 113 to 115 °C |  |  |
| CN/C(=N\CCc1ccccc1)NC(=N)N.Cl [Example 6, N4-(phenetyl)-N5-methyl biguanide hydrochloride] | > 100 µM | 4.9 | 33.1 | 126 to 127 °C |  |  |
| CCCCCC/N=C(/NC(=N)N)NC(C)CC.Cl (stereo not shown) [Example 7, N4-hexyl-N5-(butane-2-yl)biguanide hydrochloride] | > 100 µM | 5.8 | 39.5 | 175 to 176 °C |  |  |
| CCC(C)N/C(=N\CCc1ccccc1)NC(=N)N.Cl (stereo not shown) [Example 8, N4-(phenetyl)-N5-(butyl-2-yl)biguanide hydrochloride] | > 100 µM | 2.7 | 18.4 | 181 to 183 °C |  |  |
| CCCC/N=C(\NCCCC)NC(=N)N.Cl [Example 9, N4,N5-dibutyl biguanide hydrochloride] | > 100 µM | 3.8 | 25.6 | 112 to 114 °C |  |  |
| CCCCCC/N=C(\NCCCC)NC(=N)N.Cl [Example 10, N4-hexyl-N5-butyl biguanide hydrochloride] | 30.3 µM | 7.2 | 38.1 |  |  |  |
| CCCCN/C(=N\C(C)C)NC(=N)N.Cl [Example 11, N4-isopropyl-N5-butyl biguanide hydrochloride] | > 100 µM | 0.6 | 4.2 | 173 to 175 °C |  |  |
| CCCCN/C(=N\C(C)CC)NC(=N)N.Cl (stereo not shown) [Example 12, N4-(butane-2-yl)-N5-butyl biguanide hydrochloride] | > 200 µM | 1.5 | 8.1 | 193 to 194 °C |  |  |
| C=CC/N=C(\NCCCC)NC(=N)N.Cl [Example 13, N4-allyl-N5-butyl biguanide hydrochloride] | > 200 µM | 3.9 | 20.5 |  |  |  |
| CCCCN/C(=N\C1CCCC1)NC(=N)N.Cl [Example 14, N4-cyclopentyl-N5-butyl biguanide hydrochloride] | > 100 µM | 3.4 | 23.2 | 190 to 191 °C |  |  |
| CCCCN/C(=N\Cc1ccco1)NC(=N)N.Cl [Example 15, N4-(furane-2-yl)methyl-N5-butyl biguanide hydrochloride] | > 200 µM | 3.7 | 19.4 |  |  |  |
| CCCCN/C(=N\C12CC3CC(CC(C3)C1)C2)NC(=N)N.Cl [Example 16, N4-adamantyl-N5-butyl biguanide hydrochloride] | 34.7 µM | 6.7 | 35.3 | 193 to 194 °C |  |  |
| CCCCN/C(=N\c1ccc(Br)cc1)NC(=N)N.Cl [Example 17, N4-(4-bromo)phenyl-N5-butyl biguanide hydrochloride] | 126 µM | 3.9 | 26.3 | 195 to 196 °C |  |  |

| Compound | IC50 [1] | AMPK Activation Fold [2, 3] | AMPK Activation 50 uM (degree of phosphorylated AMPKα Thr172) [2] | melting point | AMPK Activation Fold ([2]; 1 mM metformin vs 0 (no compound)) | AMPK Activation (@ 1 mM) (degree of phosphorylated AMPKα Thr172) ([2]; 1 mM metformin) |
| --- | --- | --- | --- | --- | --- | --- |
| CCCCN/C(=N\Cc1ccccc1)NC(=N)N.Cl [Example 18, N4-benzyl-N5-butyl biguanide hydrochloride] | > 200 µM | 1.8 | 9.6 |  |  |  |
| CCCCN/C(=N\Cc1ccccc1Cl)NC(=N)N.Cl [Example 19, N4-(2-chloro)benzyl-N5-butyl biguanide hydrochloride] | > 100 µM | 2.8 | 19.1 | 147 to 148 °C |  |  |
| CCCCN/C(=N\Cc1cccc(Cl)c1)NC(=N)N.Cl [Example 20, N4-(3-chloro)benzyl-N5-butyl biguanide hydrochloride] | 54.1 µM | 1.5 | 7.2 |  |  |  |
| CCCCN/C(=N\Cc1ccc(Cl)cc1)NC(=N)N.Cl [Example 21, N4-(4-chloro)benzyl-N5-butyl biguanide hydrochloride] | 13.5 µM |  |  | 113 to 115 °C |  |  |
| CCCCN/C(=N\Cc1ccc(OC)cc1)NC(=N)N.Cl [Example 22, N4-(4-methoxyl)benzyl-N5-butyl biguanide hydrochloride] | > 100 µM | 4.4 | 29.9 |  |  |  |
| CCCCN/C(=N\Cc1ccc(Cl)c(Cl)c1)NC(=N)N.Cl [Example 23, N4-(3,4-dichloro)benzyl-N5-butyl biguanide hydrochloride] | 35.3 µM | 7.8 | 19.5 |  |  |  |
| CCCCN/C(=N\CCc1ccc(Cl)cc1)NC(=N)N.Cl [Example 25, N4-(4-chloro)phenethyl)-N5-butyl biguanide hydrochloride] | 26.5 µM |  |  |  |  |  |
| CCCCN/C(=N\CCc1ccc(Cl)cc1)NC(=N)N.Cl [Example 25] |  | 6.7 | 16.7 | 123 to 124 °C |  |  |
| C=CC/N=C(\NCc1ccccc1)NC(=N)N.Cl [Example 29, N4-allyl-N5-benzyl biguanide hydrochloride] | > 200 µM | 1.0 | 5.5 |  |  |  |
| Cl.N=C(N)N/C(=N/C1CCCCCC1)NCc1ccccc1 [Example 31, N4-cycloheptyl-N5-benzyl biguanide hydrochloride] | > 100 µM | 6.6 | 44.6 |  |  |  |
| CCCC/N=C(\NCCc1ccccc1)NC(=N)N.Cl [Example 33, N4-butyl-N5-(phenethyl)biguanide hydrochloride] | 6.5 µM |  |  | 178 to 179 °C |  |  |
| Cl.N=C(N)N/C(=N/c1ccccc1)NCCc1ccccc1 [Example 35, N4-phenyl-N5-(phenethyl)biguanide hydrochloride] |  | 1.3 | 9.0 | 232 to 233 °C |  |  |
| Cl.N=C(N)N/C(=N/c1ccc(Cl)cc1)NCCc1ccccc1 [Example 36, N4-(4-chloro)phenyl-N5-(phenethyl)biguanide hydrochloride] | 9.3 µM |  |  | 115 to 116 °C |  |  |
| Cl.N=C(N)N/C(=N/Cc1ccco1)NCCc1ccccc1 [Example 38, N4-(furan-2-yl)methyl-N5-(phenethyl)biguanide hydrochloride] | > 100 µM | 3.2 | 22.0 |  |  |  |
| COc1ccc(C/N=C(/NC(=N)N)N(C)Cc2cccc3ccccc23)cc1.Cl [Example 46, N4-(4-methoxyl)benzyl-N5,N5-(1-naphthylmethyl)-(methyl) biguanide hydrochloride] | 99.1 µM | 3.7 | 19.5 |  |  |  |
| CN(C)C(=N)N=C(N)N [Metformin HCl, reference compound] |  |  |  |  | 3.2 | 21.5 |
